According to ChEMBL document CHEMBL1150858, “Two new cytotoxic and virucidal trisulfated triterpene glycosides from the Antarctic sea cucumber Staurocucumis liouvillei” (J Nat Prod, 2001):

Tests used:
Vero [1] = experiment: Cytotoxicity against african green monkey Vero cells at 6.25 to 50 ug/mL within 8 hrs by MTT assay; type: cell-based; details: chlorocebus sabaeus
Vero [2] = experiment: Cytotoxicity against african green monkey Vero cells at 6.25 to 50 ug/mL measured after prolonged incubation by MTT assay; type: cell-based; details: chlorocebus sabaeus
Human alphaherpesvirus 1 = experiment: Antiviral activity against HSV1 KOS in african green monkey Vero cells assessed as residual infectivity at 10 ug/mL by plaque formation assay; type: functional

SMILES	Activity (Vero [1])	Activity (Vero [2])	Activity (Human alphaherpesvirus 1)
CO[C@@H]1[C@@H](O)[C@H](O[C@@H]2[C@@H](O)[C@H](O[C@H]3[C@H](O)[C@@H](O)[C@H](O[C@H]4[C@H](O[C@H]5CC[C@]6(C)[C@H]7CC[C@]89C(=O)O[C@@](C)(CCCC(C)C)[C@H]8[C@@H](OC(C)=O)C[C@@]9(C)C7=CC[C@H]6C5(C)C)OC[C@@H](OS(=O)(=O)[O-])[C@@H]4O)O[C@@H]3C)O[C@H](COS(=O)(=O)[O-])[C@H]2O)O[C@H](COS(=O)(=O)[O-])[C@H]1O.[Na+].[Na+].[Na+] [LIOUVILLOSIDE B]	Non-toxic	Toxic	2.5%
CO[C@@H]1[C@@H](O)[C@H](O[C@@H]2[C@@H](O)[C@H](O[C@H]3[C@H](O)[C@@H](O)[C@H](O[C@H]4[C@H](O[C@H]5CC[C@]6(C)[C@H]7CC[C@]89C(=O)O[C@@](C)(CCC=C(C)C)[C@H]8[C@@H](OC(C)=O)C[C@@]9(C)C7=CC[C@H]6C5(C)C)OC[C@@H](OS(=O)(=O)[O-])[C@@H]4O)O[C@@H]3C)O[C@H](COS(=O)(=O)[O-])[C@H]2O)O[C@H](COS(=O)(=O)[O-])[C@H]1O.[Na+].[Na+].[Na+] [LIOUVILLOSIDE A]	Non-toxic	Toxic	24%
